Data: ChEMBL document CHEMBL1124557, “Pentadienyl carboxamide derivatives as antagonists of platelet-activating factor” (J Med Chem, 1989)

Tests used:
Cavia porcellus [1] = assay: Inhibitory activity against bronchoconstriction in guinea pig 2 hr after peroral administration of compound; format: functional; settings: Lung, po, read-out: ID50 (the source's name)
[2] = molecular target: Platelet-activating factor receptor (Cavia porcellus) (UniProt P21556); assay: Ability to prevent PAF-induced bronchoconstriction in guinea pig 2 hr after administration (50 mg/kg perorally); format: functional, organism-based
Cavia porcellus [3] = assay: Ability to prevent PAF-induced bronchoconstriction in guinea pig when administered at a dose of 1 mg/kg intravenously; format: functional; settings: route intravenous
[4] = molecular target: Platelet-activating factor receptor (Cavia porcellus) (UniProt P21556); assay: Ability to prevent PAF-induced bronchoconstriction in guinea pig when administered intravenously; format: functional
Rattus norvegicus [5] = assay: PAF-induced capillary permeability changes are studied in rat skin test, after peroral administration of the compound; format: functional; settings: po, read-out: ID50 (the source's name)
Cavia porcellus [6] = assay: PAF-induced capillary permeability changes are studied in guinea pig test, after intravenous administration of the compound; format: functional; settings: read-out: ID50 (the source's name)
Cavia porcellus [7] = assay: Ability to prevent PAF-induced bronchoconstriction in guinea pig 6 hr following 50 mg/kg p.o. administration.; format: functional; settings: route oral
Cavia porcellus [8] = assay: PAF-induced capillary permeability changes are studied in guinea pig skin test, after peroral administration of the compound; format: functional; settings: po, read-out: ID50 (the source's name)
Rattus norvegicus [9] = assay: PAF-induced capillary permeability changes are studied in rat skin test, after intravenous administration of the compound; format: functional; settings: read-out: ID50 (the source's name)
Cavia porcellus [10] = assay: Ability to prevent PAF-induced bronchoconstriction in guinea pig when administered dose 1 mg/kg intravenously; format: functional; settings: route intravenous
Cavia porcellus [11] = assay: Inhibition of PAF-induced bronchoconstriction in guinea pig 2 hr after p.o. administration.; format: functional; settings: po, read-out: ID50 (the source's name)
Cavia porcellus [12] = assay: Ability to prevent PAF-induced bronchoconstriction in guinea pig when administered dose 0.5 mg/kg intravenously; format: functional; settings: route intravenous
Cavia porcellus [13] = assay: Ability to prevent PAF-induced bronchoconstriction in guinea pig 2 hr after administration of compound (50 mg/kg perorally); format: functional; settings: po, read-out: ID50 (the source's name)

Sequence of Platelet-activating factor receptor (Cavia porcellus) (P21556 whole entry): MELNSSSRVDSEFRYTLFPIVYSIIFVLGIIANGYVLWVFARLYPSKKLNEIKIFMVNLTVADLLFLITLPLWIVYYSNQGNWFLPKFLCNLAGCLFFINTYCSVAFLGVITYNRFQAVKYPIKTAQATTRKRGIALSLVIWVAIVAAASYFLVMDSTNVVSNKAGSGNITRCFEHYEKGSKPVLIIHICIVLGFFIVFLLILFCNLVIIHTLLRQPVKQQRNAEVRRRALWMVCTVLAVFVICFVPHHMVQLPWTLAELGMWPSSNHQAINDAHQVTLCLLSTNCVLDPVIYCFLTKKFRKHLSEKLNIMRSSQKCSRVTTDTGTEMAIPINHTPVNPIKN

| SMILES | ED50 (Cavia porcellus [1]) | inhibition [2] | inhibition in vivo at 1 mg/kg (Cavia porcellus [3]) | ID50 [4] | ED50 (Rattus norvegicus [5]) | ED50 (Cavia porcellus [6]) | inhibition in vivo at 50 mg/kg (Cavia porcellus [7]) | ED50 (Cavia porcellus [8]) | ED50 (Rattus norvegicus [9]) | inhibition in vivo at 1 mg/kg (Cavia porcellus [10]) | ED50 (Cavia porcellus [11]) | inhibition in vivo at 0.5 mg/kg (Cavia porcellus [12]) | ED50 (Cavia porcellus [13]) |
| --- | --- | --- | --- | --- | --- | --- | --- | --- | --- | --- | --- | --- | --- |
| CCCCC/C(=C\C=C\C(=O)N[C@H](C)CCCc1cccnc1)c1ccc(OC)cc1 | 16 mg/kg | 100% | 99% | 0.05 mg/kg | 70 mg/kg | 3 mg/kg | 71% | 65 mg/kg | 1.7 mg/kg |  |  |  |  |
| CCCCCC/C(=C\C=C\C(=O)N[C@H](C)CCCc1cccnc1)c1ccc(OC)cc1 |  | 96% |  | 0.07 mg/kg |  |  | 14% |  |  | 100% | 8 mg/kg |  |  |
| COc1ccc(C(=C/C=C/C(=O)N[C@H](C)CCCc2cccnc2)c2ccc(OC)cc2)cc1 | 4 mg/kg | 98% | 98% | 0.25 mg/kg | 25 mg/kg | 15 mg/kg | 93% | 75 mg/kg | 2 mg/kg |  |  |  |  |
| O=C(C/C=C/C=C(c1ccccc1)c1ccccc1)NCCCCc1cccnc1 |  | 35% |  |  |  |  |  |  |  |  |  | 60% | 0.62 mg/kg |
| Cc1nnc2n1-c1sc(CCC(=O)N3CCOCC3)cc1C(c1ccccc1Cl)=NC2 [APAFANT] |  | 100% | 99% | 0.03 mg/kg | 45 mg/kg | 2.5 mg/kg | 100% | 35 mg/kg | 0.64 mg/kg |  | 1 mg/kg |  |  |
